Experimental findings from ChEMBL document CHEMBL4396953, “Synthesis and highly potent anti-inflammatory activity of licofelone- and ketorolac-based 1-arylpyrrolizin-3-ones” (2019) are described below.

What all share (format): functional
In assay [1] the test system is Mus musculus. Description: Antiinflammatory activity in CD1 mouse model of TPA-induced ear edema assessed as inhibition of ear edema at 2 mg/ear administered topically after TPA challenge for 30 mins and measured after 6 hrs post administration relative to control.
Assay [2] concerns Mus musculus. The experiment in a line: Antiinflammatory activity in CD1 mouse model of TPA-induced ear edema assessed as ear edema formation at 2 mg/ear administered topically after TPA challenge for 30 mins and measured after 6 hrs post administration (reference value: 17.61 to 19.82 mg).
Assay [3] deals with Mus musculus. Description: Antiinflammatory activity in CD1 mouse model of TPA-induced ear edema assessed as inhibition of ear edema at 0.5 mg/ear administered topically after TPA challenge for 30 mins and measured after 6 hrs post administration relative to control.
The subject of assay [4] is Mus musculus. Description: Antiinflammatory activity in CD1 mouse model of TPA-induced ear edema assessed as inhibition of ear edema at 1 mg/ear administered topically after TPA challenge for 30 mins and measured after 6 hrs post administration relative to control.
Assay [5] concerns Mus musculus. Description: Antiinflammatory activity in CD1 mouse model of TPA-induced ear edema assessed as ear edema formation at 0.5 mg/ear administered topically after TPA challenge for 30 mins and measured after 6 hrs post administration (reference value: 17.61 to 19.82 mg).
Assay [6] relates to Mus musculus. Description: Antiinflammatory activity in CD1 mouse model of TPA-induced ear edema assessed as ear edema formation at 1 mg/ear administered topically after TPA challenge for 30 mins and measured after 6 hrs post administration (reference value: 17.61 to 19.82 mg).
The test system of assay [7] is Mus musculus. Description: Antiinflammatory activity in CD1 mouse model of TPA-induced ear edema assessed as reduction in ear edema formation administered topically after TPA challenge for 30 mins and measured after 6 hrs post administration.
The next assay relates to J774.A1. Description: Antiinflammatory activity in mouse J774A.1 cells LPS-induced NO production at 25 ug/ml incubated for 2 hrs followed by LPS-stimulation measured after 24 hrs by Griess assay relative to control.

For the compound `COC(=O)C1=C(c2ccc(Br)cc2)c2cccn2C1=O`, the “inhibition (INH)” value in the assay with Mus musculus [1] was determined as 40.88%; in the assay with Mus musculus [3] it was 8.46%; with Mus musculus [4], 29.73%. Also, the Activity with Mus musculus [2] was 11.72 mg; in the assay with Mus musculus [5] it was 18.14 mg; in the assay with Mus musculus [6], 13.93 mg; with Mus musculus [7], “Dose-dependent effect”. The ED50 in the assay on Mus musculus [7] stood at 3.23 mg.

For `COC(=O)C1=C(c2ccc([N+](=O)[O-])cc2)c2cccn2C1=O`, the “inhibition (INH)” value stood at 53.43% in the assay on Mus musculus [1], 8.52% in the assay on Mus musculus [3] and 24.1% in the assay on Mus musculus [4]. Further, the Activity with Mus musculus [2] is 9.2 mg; in the assay with Mus musculus [5], 18.13 mg; in the assay on Mus musculus [6], 15.04 mg; in the assay with Mus musculus [7] it was “Dose-dependent effect”. Besides, the ED50 with Mus musculus [7] was 1.86 mg.

Turning to `COC(=O)Cn1cccc1C=O`, in the assay with Mus musculus [1], the “inhibition (INH)” value came out at 33.73%. In addition, in the assay with Mus musculus [2], the Activity worked out at 11.87 mg.

Regarding `COc1ccc2c(c1)c(CC(=O)O)c(C)n2C(=O)c1ccc(Cl)cc1` [INDOMETHACIN], the “inhibition (INH)” value with Mus musculus [1] was 41.47 - 61.1%; with Mus musculus [3] it was 32.12 - 41.44%; in the assay on Mus musculus [4], 41.97 - 52.37%. For the same compound, the Activity in the assay with Mus musculus [2] is 6.99 to 10.49 mg; with Mus musculus [5], 1.22 to 11.51 mg; in the assay on Mus musculus [6], 9.01 to 9.44 mg; with Mus musculus [7] it was “Dose-dependent effect”; with J774.A1 it was 64.63%. The ED50 in the assay with Mus musculus [7] fell in the range of 1.07 to 1.29 mg.

For the compound `COC(=O)/C(=C\N(C)C)n1cccc1C=O`, the “inhibition (INH)” value in the assay with Mus musculus [1] came out at 21.37%. Further, the Activity with Mus musculus [2] is recorded as 14.09 mg.
